Reference: patent US7781436B2 (Hoffmann-La Roche Inc., priority 2005, dated 2010)
pKi: −log10 of the molar value.

Each compound was assayed against T1, human V1a receptor (Homo sapiens, UniProt P37288) (assay: human V1a receptor binding (3H-Vasopressin SPA, membranes of transfected HEK293 cells)). Conditions: not given.
T1 construct: expressed in transfected cells; host or cells: HEK293 cells, transiently transfected; membranes prepared
Experimental: The human V1a receptor was cloned by RT-PCR from total human liver RNA. The coding sequence was subcloned in an expression vector after sequencing to confirm the identity of the amplified sequence. […] Cell membranes were prepared from HEK293 cells transiently transfected with the expression vector and grown in 20 liter fermenters with the following protocol.
50 g of cells are resuspended in 30 ml freshly prepared ice cold Lysis buffer (50 mM HEPES, 1 mM EDTA, 10 mM MgCl2 adjusted to pH=7.4+ complete cocktail of protease inhibitor (Roche Diagnostics)). Homogenized with Polytron for 1 min and sonicated on ice for 2×2 minutes at 80% intensity (Vibracell sonicator). The preparation is centrifuged 20 min at 500 g at 4° C., the pellet is discarded and the supernatant centrifuged 1 hour at 43,000 g at 4° C. (19'000 rpm). The pellet is resuspended in 12.5 ml Lysis buffer+12.5 ml Sucrose 20% and homogenized using a Polytron for 1-2 min. The protein concentration is determined by the Bradford method, and aliquots are stored at −80° C. until use. For binding studies 60 mg Yttrium silicate SPA beads (Amersham) are mixed with an aliquot of membrane in binding buffer (50 mM Tris, 120 mM NaCl, 5 mM KCl, 2 mM CaCl2, 10 mM MgCl2) for 15 minutes with mixing. 50 ul of bead/membrane mixture is then added to each well of a 96 well plate, followed by 50 ul of 4 nM 3H-Vasopressin (American Radiolabeled Chemicals). For total binding measurement 100 ul of binding buffer are added to the respective wells, for non-specific binding 100 ul of […] cold vasopressin and for compound testing 100 ul of a serial dilution of each compound in 2% DMSO. The plate is incubated 1 h at room temperature, centrifuged 1 min at 1000 g and counted on a Packard Top-Count. Non-specific binding counts are subtracted from each well, and data is normalized to the maximum specific binding set at 100%. To calculate an IC 50 the curve is fitted using a non-linear regression model (XLfit) and the Ki is calculated using the Cheng-Prussoff equation.

T1 sequence (P37288 whole entry): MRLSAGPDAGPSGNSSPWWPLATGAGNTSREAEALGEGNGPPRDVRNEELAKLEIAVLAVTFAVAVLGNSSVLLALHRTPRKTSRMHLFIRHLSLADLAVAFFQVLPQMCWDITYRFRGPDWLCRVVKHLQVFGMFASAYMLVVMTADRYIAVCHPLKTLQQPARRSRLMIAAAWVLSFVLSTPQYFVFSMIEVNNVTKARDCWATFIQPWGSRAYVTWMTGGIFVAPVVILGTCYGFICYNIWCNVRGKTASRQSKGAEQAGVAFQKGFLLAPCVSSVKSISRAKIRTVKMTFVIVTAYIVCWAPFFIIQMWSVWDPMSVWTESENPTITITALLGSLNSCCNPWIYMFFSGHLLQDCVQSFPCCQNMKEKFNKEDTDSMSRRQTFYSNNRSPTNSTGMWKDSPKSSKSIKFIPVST

Row | Structure (SMILES) | pKi
1 | O=C(c1cn(C[C@H]2CCCN2)c2cc(Cl)ccc12)N1CCN(c2ccccc2F)CC1 [Example 214, (6-Chloro-1-(R)-1-pyrrolidin-2-ylmethyl-1H-indol-3-yl)-[4-(2-fluoro-phenyl)-piperazin-1-yl]-methanone] | 7.80
2 | COc1cccc(OC)c1C1CCN(C(=O)c2cn(CC(N)=O)c3cc(Cl)ccc23)CC1 [Example 81, 2-{6-Chloro-3-[4-(2,6-dimethoxy-phenyl)-piperidine-1-carbonyl]-indol-1-yl}-acetamide] | 7.89
3 | CN(C)C(=O)Cn1cc(C(=O)N2CCN(c3ccc(F)cc3F)CC2)c2ccc(Cl)cc21 [Example 205, 2-{6-Chloro-3-[4-(2,4-difluoro-phenyl)-piperazine-1-carbonyl]-indol-1-yl}-N,N-dimethyl-acetamide] | 8.00
4 | COc1ccccc1N1CCN(C(=O)c2cn(CC(=O)N3CCN(C)CC3)c3cc(Cl)ccc23)CC1 [Example 153, 2-{6-Chloro-3-[4-(2-methoxy-phenyl)-piperazine-1-carbonyl]-indol-1-yl}-1-(4-methyl-piperazin-1-yl)-ethanone] | 7.64
5 | CN(C)C(=O)Cn1cc(C(=O)N2CCC(c3ccncc3)CC2)c2ccc(Cl)cc21 [Example 122, 2-[6-Chloro-3-(3,4,5,6-tetrahydro-2H-[4,4′]bipyridinyl-1-carbonyl)-indol-1-yl]-N,N-dimethyl-acetamide] | 8.00
6 | COc1ccccc1C1(C#N)CCN(C(=O)c2cn(CC(=O)N(C)C)c3cc(Cl)ccc23)CC1 [Example 60, 2-{6-Chloro-3-[4-cyano-4-(2-methoxy-phenyl)-piperidine-1-carbonyl]-indol-1-yl}-N,N-dimethyl-acetamide] | 8.10
7 | CC(=O)N(C)CCn1cc(C(=O)N2CCN(c3ccccc3F)CC2)c2ccc(Cl)cc21 [Example 219, N-(2-{6-Chloro-3-[4-(2-fluoro-phenyl)-piperazine-1-carbonyl]-indol-1-yl}-ethyl)-N-methyl-acetamide] | 7.82
8 | CN1CCC[C@H]1Cn1cc(C(=O)N2CCN(c3ccccc3F)CC2)c2ccc(Cl)cc21 [Example 203, [6-Chloro-1-((S)-1-methyl-pyrrolidin-2-ylmethyl)-1H-indol-3-yl]-[4-(2-fluoro-phenyl)-piperazin-1-yl]-methanone] | 8.70
9 | CC(=O)NCCn1cc(C(=O)N2CCN(c3ccccc3F)CC2)c2ccc(Cl)cc21 [Example 217, N-(2-{6-Chloro-3-[4-(2-fluoro-phenyl)-piperazine-1-carbonyl]-indol-1-yl}-ethyl)-acetamide] | 7.68
10 | COc1cccc(OC)c1C1CCN(C(=O)c2cn(Cc3cnccn3)c3cc(Cl)ccc23)CC1 [Example 50] | 8.40
11 | CN(C)C(=O)Cn1cc(C(=O)N2CCC(c3ccccc3OC(F)(F)F)CC2)c2ccc(Cl)cc21 [Example 95, 2-{6-Chloro-3-[4-(2-trifluoromethoxy-phenyl)-piperidine-1-carbonyl]-indol-1-yl}-N,N-dimethyl-acetamide] | 7.89

Same assay, conditions: displacement of 4 nM 3H-Vasopressin, HEK293 cell membranes, Ki by Cheng-Prussoff from IC50; read-out: Ki

Row | Structure (SMILES) | pKi
12 | COc1ccccc1C1CCN(C(=O)c2cn(CC(=O)N(C)C)c3cc(Cl)c(Cl)cc23)CC1 [Example 80, 2-{5,6-Dichloro-3-[4-(2-methoxy-phenyl)-piperidine-1-carbonyl]-indol-1-yl}-N,N-dimethyl-acetamide] | 8.22
13 | COc1ccccc1N1CCN(C(=O)c2cn(CC(=O)N(C)C)c3cc(Cl)ccc23)CC1 [Example 151, 2-{6-Chloro-3-[4-(2-methoxy-phenyl)-piperazine-1-carbonyl]-indol-1-yl}-N,N-dimethyl-acetamide] | 7.85
14 | CS(=O)(=O)NCCn1cc(C(=O)N2CCN(c3ccccc3F)CC2)c2ccc(Cl)cc21 [Example 218, N-(2-{6-Chloro-3-[4-(2-fluoro-phenyl)-piperazine-1-carbonyl]-indol-1-yl}-ethyl)-methanesulfonamide] | 7.80
15 | COc1cccc(OC)c1C1CCN(C(=O)c2c[nH]c3cc(Cl)ccc23)CC1 [Example 40, (6-Chloro-1H-indol-3-yl)-[4-(2,6-dimethoxy-phenyl)-piperidin-1-yl]-methanone] | 8.10
16 | CNC(=O)Cn1cc(C(=O)N2CCC(c3c(OC)cccc3OC)CC2)c2ccc(Cl)cc21 [Example 82, 2-{6-Chloro-3-[4-(2,6-dimethoxy-phenyl)-piperidine-1-carbonyl]-indol-1-yl}-N-methyl-acetamide] | 8.70
17 | CNC(=O)Cn1cc(C(=O)N2CCC(c3ccccc3C(F)(F)F)CC2)c2ccc(Cl)cc21 [Example 96, 2-{6-Chloro-3-[4-(2-trifluoromethyl-phenyl)-piperidine-1-carbonyl]-indol-1-yl}-N-methyl-acetamide] | 7.96
18 | CN(C)C(=O)Cn1cc(C(=O)N2CCN(c3ccccc3F)CC2)c2ccc(Cl)cc21 [Example 174, 2-{6-Chloro-3-[4-(2-fluoro-phenyl)-piperazine-1-carbonyl]-indol-1-yl}-N,N-dimethyl-acetamide] | 8.52
19 | COc1cccc(OC)c1C1CCN(C(=O)c2cn(CCN(C)C)c3cc(Cl)ccc23)CC1 [Example 52, [6-Chloro-1-(2-dimethylamino-ethyl)-1H-indol-3-yl]-[4-(2,6-dimethoxy-phenyl)-piperidin-1-yl]-methanone] | 8.40
20 | O=C(Cn1cc(C(=O)N2CCN(c3ccccc3F)CC2)c2ccc(Cl)cc21)N1CCNCC1 [Example 177, 2-{6-Chloro-3-[4-(2-fluoro-phenyl)-piperazine-1-carbonyl]-indol-1-yl}-1-piperazin-1-yl-ethanone] | 8.10
21 | CNC(=O)Cn1cc(C(=O)N2CCC(c3ccccc3F)CC2)c2ccc(Cl)cc21 [Example 111, 2-{6-Chloro-3-[4-(2-fluoro-phenyl)-piperidine-1-carbonyl]-indol-1-yl}-N-methyl-acetamide] | 8.15
22 | CN1CCN(C(=O)Cn2cc(C(=O)N3CCC(c4ccccc4C(F)(F)F)CC3)c3ccc(Cl)cc32)CC1 [Example 97, 2-{6-Chloro-3-[4-(2-trifluoromethyl-phenyl)-piperidine-1-carbonyl]-indol-1-yl}-1-(4-methyl-piperazin-1-yl)-ethanone] | 8.22
23 | CN(C)C(=O)Cn1cc(C(=O)N2CCC(c3ccccc3F)CC2)c2ccc(Cl)cc21 [Example 114, 2-{6-Chloro-3-[4-(2-fluoro-phenyl)-piperidine-1-carbonyl]-indol-1-yl}-N,N-dimethyl-acetamide] | 8.52
24 | COc1ccccc1C1CCN(C(=O)c2cn(CCN(C)C)c3cc(Cl)ccc23)CC1 [Example 108, [6-Chloro-1-(2-dimethylamino-ethyl)-1H-indol-3-yl]-[4-(2-methoxy-phenyl)-piperidin-1-yl]-methanone] | 8.10
25 | CNC(=O)Cn1cc(C(=O)N2CCN(c3ccccc3OC)CC2)c2ccc(Cl)cc21 [Example 162, 2-{6-Chloro-3-[4-(2-methoxy-phenyl)-piperazine-1-carbonyl]-indol-1-yl}-N-methyl-acetamide] | 7.57
26 | CN(C)C(=O)Cn1cc(C(=O)N2CCN(c3ncccc3C(F)(F)F)CC2)c2ccc(Cl)cc21 [Example 211, 2-{6-Chloro-3-[4-(3-trifluoromethyl-pyridin-2-yl)-piperazine-1-carbonyl]-indol-1-yl}-N,N-dimethyl-acetamide] | 7.89
27 | CNC(=O)Cn1cc(C(=O)N2CCN(c3ncccc3C(F)(F)F)CC2)c2ccc(Cl)cc21 [Example 196, 2-{6-Chloro-3-[4-(3-trifluoromethyl-pyridin-2-yl)-piperazine-1-carbonyl]-indol-1-yl}-N-methyl-acetamide] | 7.59
28 | COc1cccc(OC)c1C1CCN(C(=O)c2cn(Cc3ccncc3)c3cc(Cl)ccc23)CC1 [Example 45, (6-Chloro-1-pyridin-4-ylmethyl-1H-indol-3-yl)-[4-(2,6-dimethoxy-phenyl)-piperidin-1-yl]-methanone] | 8.15
29 | CN(C)C(=O)Cn1cc(C(=O)N2CCC(c3ccccc3C(F)(F)F)CC2)c2ccc(Cl)cc21 [Example 102, 2-{6-Chloro-3-[4-(2-trifluoromethyl-phenyl)-piperidine-1-carbonyl]-indol-1-yl}-N,N-dimethyl-acetamide] | 8.15
30 | COc1cccc(OC)c1C1CCN(C(=O)c2cn(CC(=O)N(C)C)c3cc(Cl)ccc23)CC1 [Example 43, 2-{6-Chloro-3-[4-(2,6-dimethoxy-phenyl)-piperidine-1-carbonyl]-indol-1-yl}-N,N-dimethyl-acetamide] | 8.70
31 | COc1ccccc1C1CCN(C(=O)c2cn(CC(=O)N3CCN(C)CC3)c3cc(Cl)ccc23)CC1 [Example 58, 2-{6-Chloro-3-[4-(2-methoxy-phenyl)-piperidine-1-carbonyl]-indol-1-yl}-1-(4-methyl-piperazin-1-yl)-ethanone] | 8.05
32 | C[C@H](N)Cn1cc(C(=O)N2CCN(c3ccccc3F)CC2)c2ccc(Cl)cc21 [Example 198, [1-((S)-2-Amino-propyl)-6-chloro-1H-indol-3-yl]-[4-(2-fluoro-phenyl)-piperazin-1-yl]-methanone] | 7.70
